Results reported in patent US6605589B1, “Cathepsin inhibitors in cancer treatment” (Parker Hughes Institute, priority 2000, dated 2003).
Residues, ends and D or L forms follow the SMILES beside them. *: point of attachment. Cbz = O=C(OCc1ccccc1)*; CH2F = FC*

System: SQ-20B, BT-20, U373, HeLa and NCI-H520 cells
Test: CATI-1 induced apoptosis in presence of caspase inhibitor I (flow cytometry)
Assay type: cell-based, human
Settings: 50 μM caspase inhibitor I with 50 μM CATI-1, 24 hours; any cell line tested
Method: The percentages indicate the fraction of cells at an early stage of apoptosis (lower right quadrant), as measured by single MC540 fluorescence, and the fraction of cells at an advanced stage of apoptosis (upper right quadrant).
Quantitative flow cytometric apoptosis detection assays were performed on BT-20 (breast cancer), PC-3 (prostate cancer), U373 (glioblastoma), SQ20B (squamous cell carcinoma), HeLa (cervix cancer), and DU145 (prostate cancer). Just prior to the assay, one mg/ml stock solutions of MC540 (Sigma, St. Louis, Mo.) and PI (Sigma, St. Louis, Mo.) were filtered through a 0.22 μm filter and stored at 4° C. in the dark. […] Stained cells were analyzed with a FACStar Plus flow cytometer (Becton Dickinson, San Jose, Calif.) using the 488-nm excitation from an argon laser. […] In each experiment approximately 10,000 cells were analyzed by FACS and the percentage of cells at early (MC540 fluorescence only) and advanced (dual MC540 plus PI fluorescence) stages of apoptosis obtained.
Human cancer cell lines were treated with 50 μM CATI-1 in the presence and absence of 50 μM caspase inhibitor I (Z-Val-Ala-Asp(Ome)-CH2F) (Calbiochem, La Jolla, Calif.) for 24 hours to determine whether caspases were required for cathepsin inhibitor activity. […] Quantitative flow cytometric apoptosis detection assays were performed on treated cells as previously discussed in Example II.

In the case of COC(=O)C[C@H](NC(=O)[C@H](C)NC(=O)[C@@H](NC(=O)OCc1ccccc1)C(C)C)C(=O)CF [caspase inhibitor I, Z-Val-Ala-Asp(Ome)-CH2F] (Cbz-Val-Ala-Asp(OMe)-CH2F), the “impact on CATI-1 induced apoptosis” value is reported as “no detectable impact”.
